Test results: publication PMC12320299 (Chemical Science, 2025)

Columns and labels:
[1] = Solubility in phosphate buffered saline; type: physicochemical; conditions: PBS with 1% DMSO
Source text: Fig. 2 (A) Chemical structures of the investigated naphthoquinone-based metal(arenes) in this study.

[2] = Stability study by UV-Vis spectroscopy in PBS (1% DMSO); type: physicochemical; conditions: 40 μM 1a/2a, 80 μM 1b/2b
Protocol: Stability Study by UV-Vis Spectroscopy
All four compounds were freshly diluted in PBS (1% DMSO) from a DMSO stock solution at […]
80 µM. The stability of the compounds was monitored in a UV-Vis spectrophotometer (Perkin Elmer lambda 35 photometer) over 96 h by acquiring an UV-Vis spectrum every 30 mins. The percentage of the remaining intact compound was calculated by the ratio of the maximum absorbance of the tridentate complexes’ characteristic absorption band around 350– 370 nm after a given timepoint (A) compared to the one directly after dilution (A0). […]

SW480 cancer cells = test: Proteome profiling of compound-treated SW480 cancer cells (24 h, approx. IC50, CYT and NE fractions); type: cell-based, human
Protocol: To gain insight into potential modes of action and derive structure–activity relationships on a molecular level, proteomic profiling experiments were carried out based on label-free quantification (LFQ) by nano-liquid chromatography tandem mass spectrometry (nLC-MS/MS). […] Six replicates were used per condition. The perturbations were evaluated at subcellular resolution by fractionating cells into cytoplasmic (CYT) and nuclear (NE) protein fractions. Those have been separately proteolytically digested and analysed (Fig. 3A). The perturbations with the 3-Et-NQ and 3-Morph-NQ complexes were performed against their respective solvent-treated controls (CON), yielding a total of 72 samples. […] Statistical significance of individual protein regulations was calculated by multiple testing-corrected P-values based on 5% false discovery rate (FDR = 0.05 and S0 = 0.1).
The position of each group represents the summed fold-changes of the individual proteins in the group according to the subcellular space, i.e., CYT and NE fractions, while the size represents the number of proteins in each group. […]
Proteome profiling of compound-treated SW480 cancer cells […]
cells per well and left to adhere in complete cell culture medium. After 24 h, the medium was exchanged with fresh complete medium (DMSO mock control) or fresh medium containing […]
solution in DMSO, respectively) and incubated for another 24 h. Each condition was carried out in hexuplicates. The cells were processed according to a nucleocytoplasmic fractionation protocol as previously described.3 All steps were performed on ice. The medium was removed, and the cells were washed twice with 1×PBS (phosphate buffered saline, 3 mL). Then, PBS was thoroughly removed. Isotonic lysis buffer (10 mM HEPES, 10 mM NaCl, 3.5 mM MgCl2, 1 mM EGTA, 0.25 M Sucrose, 0.5% Triton X-100) containing protease inhibitors (1% PMSF, Sigma, and 1% protease and phosphatase inhibitor cocktail, Roche) was added to the flasks, the cells were scraped off and transferred into labelled 15 mL Falcon tubes. The cellular membrane was ruptured using shear stress by pressing the cell suspension through a syringe 9–12 times. Membrane rupture with intact nuclei was monitored under a microscope. After centrifugation (960 g, 5 min), the supernatant containing the cytoplasmic (CYT) proteins was transferred into new tubes containing ice-cold ethanol (1 : 5, HPLC grade) and precipitated […]
overnight at –20 °C. The pellet containing the nuclei was incubated with a hypertonic solution (10 mM Tris-HCl, 1 mM EDTA and 0.5 M NaCl) and subsequently diluted 1:10 with NP-40 buffer (10 mm Tris-HCl, 1 mm EDTA and 0.5% Triton X-100) containing protease inhibitors (1% PMSF, Sigma, and 1% protease and phosphatase inhibitor cocktail, Roche). After centrifugation (960 g, 5 min), the soluble nuclear (NE) proteins were also transferred into new tubes containing ice-cold ethanol (1 : 5, HPLC grade) and precipitated overnight at –20 °C.
The precipitated proteins were finally pelleted by centrifugation (5000 g, 30 min, 4 °C), the solution was decanted and the pellet dried under vacuum.

For `Cc1ccc(C(C)C)cc1.O=C1C(CN2CCOCC2)=C2[O][Ru][O]C2(n2cccn2)c2ccccc21` (stereo not drawn) [Compound 1b], the “Solubility in PBS” value [1] was 1220 µM, the “intact complex, UV-vis, 24 h” value ([2]; 24 h) was 76% and the “intact complex, UV-vis, 96 h” value ([2]; 96 h) was 64%. The “N° significantly regulated proteins, Total” value (SW480 cancer cells; CYT and NE) was 1498, the “GO BP Cell cycle, summed fold-changes” value (SW480 cancer cells; CYT fraction) was -2.0 and the “GO BP Cell division, summed fold-changes” value (SW480 cancer cells; CYT fraction) was 1.8. For the same compound, the “GO BP Chromatin organization, summed fold-changes” value (SW480 cancer cells; CYT fraction) was -9.6, the “GO BP DNA damage response, summed fold-changes” value (SW480 cancer cells; CYT fraction) was -1.3 and the “GO BP DNA repair, summed fold-changes” value (SW480 cancer cells; CYT fraction) was -5.7. For the same compound, the “GO BP DNA replication, summed fold-changes” value (SW480 cancer cells; CYT fraction) was -0.75, the “GO BP Intracellular protein transport, summed fold-changes” value (SW480 cancer cells; CYT fraction) was -1.2 and the “GO BP Mitotic cytokinesis, summed fold-changes” value (SW480 cancer cells; CYT fraction) was 0.635. The “GO BP Negative regulation of DNA-templated transcription, summed fold-changes” value (SW480 cancer cells; CYT fraction) was -4.7, the “GO BP Nucleocytoplasmic transport, summed fold-changes” value (SW480 cancer cells; CYT fraction) was 0.157 and the “GO BP Positive regulation of DNA-templated transcription, summed fold-changes” value (SW480 cancer cells; CYT fraction) was -4.1. The “GO BP Proteasome-mediated ubiquitin-dependent protein catabolic process, summed fold-changes” value (SW480 cancer cells; CYT fraction) was 0.556, the “GO BP Protein folding, summed fold-changes” value (SW480 cancer cells; CYT fraction) was 0.665 and the “GO BP Protein stabilization, summed fold-changes” value (SW480 cancer cells; CYT fraction) was 1.4. For the same compound, the “GO BP Protein transport, summed fold-changes” value (SW480 cancer cells; CYT fraction) was -4.1, the “GO BP Purine nucleotide biosynthetic process, summed fold-changes” value (SW480 cancer cells; CYT fraction) was -1.4 and the “GO BP RNA splicing, summed fold-changes” value (SW480 cancer cells; CYT fraction) was 2.7. The “GO BP Regulation of apoptotic process, summed fold-changes” value (SW480 cancer cells; CYT fraction) was -0.9, the “GO BP Regulation of cell fate specification, summed fold-changes” value (SW480 cancer cells; CYT fraction) was -2.6 and the “GO BP Regulation of double-strand break repair, summed fold-changes” value (SW480 cancer cells; CYT fraction) was -0.5. The “GO BP Regulation of stem cell differentiation, summed fold-changes” value (SW480 cancer cells; CYT fraction) was -2.1, the “GO BP Response to oxidative stress, summed fold-changes” value (SW480 cancer cells; CYT fraction) was -2.8 and the “GO BP Ribosomal small subunit biogenesis, summed fold-changes” value (SW480 cancer cells; CYT fraction) was 3.8. For the same compound, the “GO BP Ribosome biogenesis, summed fold-changes” value (SW480 cancer cells; CYT fraction) was 1.0, the “GO BP Ubiquitin-dependent protein catabolic process, summed fold-changes” value (SW480 cancer cells; CYT fraction) was -4.3 and the “GO BP Vesicle-mediated transport, summed fold-changes” value (SW480 cancer cells; CYT fraction) was -2.0. The “GO BP mRNA processing, summed fold-changes” value (SW480 cancer cells; CYT fraction) was 2.8, the “GO BP mRNA splicing, via spliceosome, summed fold-changes” value (SW480 cancer cells; CYT fraction) was 5.8 and the “GO BP mRNA transport, summed fold-changes” value (SW480 cancer cells; CYT fraction) was 3.1. The “GO BP rRNA processing, summed fold-changes” value (SW480 cancer cells; CYT fraction) was 6.9, the “GO CC Azurophil granule lumen, summed fold-changes” value (SW480 cancer cells; CYT fraction) was -3.8 and the “GO CC Chromatin, summed fold-changes” value (SW480 cancer cells; CYT fraction) was -3.8. The “GO CC Chromosome, centromeric region, summed fold-changes” value (SW480 cancer cells; CYT fraction) was 2.2, the “GO CC Chromosome, summed fold-changes” value (SW480 cancer cells; CYT fraction) was 0.0303 and the “GO CC Chromosome, telomeric region, summed fold-changes” value (SW480 cancer cells; CYT fraction) was -5.4. For the same compound, the “GO CC Condensin complex, summed fold-changes” value (SW480 cancer cells; CYT fraction) was 1.7, the “GO CC Cytoskeleton, summed fold-changes” value (SW480 cancer cells; CYT fraction) was 2.2 and the “GO CC Endosome, summed fold-changes” value (SW480 cancer cells; CYT fraction) was -2.0. For the same compound, the “GO CC Extracellular exosome, summed fold-changes” value (SW480 cancer cells; CYT fraction) was -48.5, the “GO CC Fibrillar center, summed fold-changes” value (SW480 cancer cells; CYT fraction) was 1.3 and the “GO CC Ficolin-1-rich granule lumen, summed fold-changes” value (SW480 cancer cells; CYT fraction) was -4.9. For the same compound, the “GO CC Focal adhesion, summed fold-changes” value (SW480 cancer cells; CYT fraction) was -5.9, the “GO CC Intracellular membrane-bounded organelle, summed fold-changes” value (SW480 cancer cells; CYT fraction) was -2.0 and the “GO CC Kinetochore, summed fold-changes” value (SW480 cancer cells; CYT fraction) was 1.6. For the same compound, the “GO CC Lipid droplet, summed fold-changes” value (SW480 cancer cells; CYT fraction) was -1.3, the “GO CC Lysosome, summed fold-changes” value (SW480 cancer cells; CYT fraction) was -2.9 and the “GO CC Microtubule cytoskeleton, summed fold-changes” value (SW480 cancer cells; CYT fraction) was 1.6. For the same compound, the “GO CC Mitochondrion, summed fold-changes” value (SW480 cancer cells; CYT fraction) was -13.5, the “GO CC Nuclear envelope, summed fold-changes” value (SW480 cancer cells; CYT fraction) was -0.6 and the “GO CC Nuclear speck, summed fold-changes” value (SW480 cancer cells; CYT fraction) was 3.4. For the same compound, the “GO CC Nucleolus, summed fold-changes” value (SW480 cancer cells; CYT fraction) was 1.4, the “GO CC Nucleoplasm, summed fold-changes” value (SW480 cancer cells; CYT fraction) was -8.6 and the “GO CC Nucleus, summed fold-changes” value (SW480 cancer cells; CYT fraction) was -23.5. The “GO CC Proteasome complex, summed fold-changes” value (SW480 cancer cells; CYT fraction) was 0.475, the “GO CC Protein-containing complex, summed fold-changes” value (SW480 cancer cells; CYT fraction) was -2.9 and the “GO CC Ribonucleoprotein complex, summed fold-changes” value (SW480 cancer cells; CYT fraction) was 3.1. The “GO CC SCAR complex, summed fold-changes” value (SW480 cancer cells; CYT fraction) was 0.9, the “GO CC Small-subunit processome, summed fold-changes” value (SW480 cancer cells; CYT fraction) was 4.9 and the “GO CC Spliceosomal complex, summed fold-changes” value (SW480 cancer cells; CYT fraction) was 2.7. The “GO CC Transcription repressor complex, summed fold-changes” value (SW480 cancer cells; CYT fraction) was -2.7, the “GO CC Vesicle, summed fold-changes” value (SW480 cancer cells; CYT fraction) was -2.7 and the “KEGG pathway ATP-dependent chromatin remodeling, summed fold-changes” value (SW480 cancer cells; CYT fraction) was -1.8. The “KEGG pathway Apoptosis, summed fold-changes” value (SW480 cancer cells; CYT fraction) was 2.5, the “KEGG pathway Basal transcription factors, summed fold-changes” value (SW480 cancer cells; CYT fraction) was -1.0 and the “KEGG pathway Biosynthesis of amino acids, summed fold-changes” value (SW480 cancer cells; CYT fraction) was -5.4. The “KEGG pathway Biosynthesis of cofactors, summed fold-changes” value (SW480 cancer cells; CYT fraction) was 2.8, the “KEGG pathway Cell cycle, summed fold-changes” value (SW480 cancer cells; CYT fraction) was -3.3 and the “KEGG pathway Nucleocytoplasmic transport, summed fold-changes” value (SW480 cancer cells; CYT fraction) was 0.8. For the same compound, the “KEGG pathway Polycomb repressive complex, summed fold-changes” value (SW480 cancer cells; CYT fraction) was -2.9, the “KEGG pathway Proteasome, summed fold-changes” value (SW480 cancer cells; CYT fraction) was -0.152 and the “KEGG pathway Ribosome biogenesis in eukaryotes, summed fold-changes” value (SW480 cancer cells; CYT fraction) was 1.9.
